Laboratory results: patent US20070082055A1, “Stable micronized candesartan cilexetil and methods for preparing thereof” (priority 2005, published 2007)
Several values for one entry are separate records, joined by “and”; a condition that tells them apart may be missing. Identical values can stand only once. Like-named read-outs stand apart in the source and are kept apart here. Blank lines part the entries; values can stand above or below the molecule they belong to.

How the values were obtained:
[1] = for Desethyl-CNS: as obtained
[2] = cited from earlier work
[3] = Table 3, after 2 weeks at 55° C.
[4] = after maintaining for 2 weeks (oven at 55° C.)

Compound: CCOc1nc2cccc(C(=O)OC(C)OC(=O)OC3CCCCC3)c2n1Cc1ccc(-c2ccccc2-c2nnn[nH]2)cc1 (racemic) [Candesartan cilexetil, (±)-1-[[(cyclohexyloxy)carbonyl]oxy]ethyl-2-ethoxy-1-[[2′-(1H-tetrazol-5-yl)[1,1 ′biphenyl]-4-yl]methyl]-1H-benzimidazole-7-carboxylate]
CNS-desethyl ([1]; time of slurry 2 hr, 2 weeks): 0.07 w/w %
CNS-desethyl ([1]; time of slurry 2 hr, T = 0): 0.03 w/w %
CNS-desethyl ([1]; time of slurry 20 hr, 2 weeks): 0.03 w/w %
CNS-desethyl ([1]; time of slurry 20 hr, T = 0): LTDL (LTDL means less than detection limit)
solubility in methanol ([2]; methanol): sparingly soluble
solubility in water ([2]; water): sparingly soluble

Compound: CCOc1nc2cccc(C(=O)OC(C)OC(=O)OC3CCCCC3)c2n1Cc1ccc(-c2ccccc2-c2nnn[nH]2)cc1 (centres unmarked) [Fine particle size, candesartan cilexetil]
2-N-ethyl CNS ([1]; 2 weeks, HPLC): 0.09 w/w % and 0.29 w/w %
CNS desethyl ([1]; 2 weeks, HPLC): 0.14 w/w % and 0.41 w/w %
CNS desethyl ([1]; T = 0, HPLC): 0.04 w/w % and 0.24 w/w %

Compound: CCOc1nc2cccc(C(=O)OC(C)OC(=O)OC3CCCCC3)c2n1Cc1ccc(-c2ccccc2-c2nnn[nH]2)cc1 (centres unmarked) [Product B, candesartan cilexetil]
1-N-ethyl CNS [1, 3]: LTDL (LTDL means less than detection limit)
2-N-ethyl CNS [1, 3]: 0.03 w/w %
CNS desethyl [1, 3]: 0.05 w/w %

Compound: CCOc1nc2cccc(C(=O)OC(C)OC(=O)OC3CCCCC3)c2n1Cc1ccc(-c2ccccc2-c2nnn[nH]2)cc1 (centres unmarked) [Product, candesartan cilexetil]
1-N-ethyl CNS ([1]; Table 3, before storage): LTDL (LTDL means less than detection limit)
2-N-ethyl CNS ([1]; Table 3, before storage): 0.03 w/w %
CNS desethyl ([1]; Table 3, before storage): 0.05 w/w %
level of desethyl-CNS ([1]; before storage): 0.05 % w/w by HPLC

Compound: CCOc1nc2cccc(C(=O)OC(C)OC(=O)OC3CCCCC3)c2n1Cc1ccc(-c2ccccc2-c2nnn[nH]2)cc1 (centres unmarked) [Sample 1, candesartan cilexetil]
1-N-ethyl CNS ([1]; Table 3, before storage): LTDL (LTDL means less than detection limit)
2-N-ethyl CNS ([1]; Table 3, before storage): LTDL (LTDL means less than detection limit)
CNS desethyl ([1]; Table 3, before storage): 0.04 w/w %

Compound: CCOc1nc2cccc(C(=O)OC(C)OC(=O)OC3CCCCC3)c2n1Cc1ccc(-c2ccccc2-c2nnn[nH]2)cc1 (centres unmarked) [Sample 1B, candesartan cilexetil]
1-N-ethyl CNS [1, 3]: 0.04 w/w %
2-N-ethyl CNS [1, 3]: 0.15 w/w %
CNS desethyl [1, 3]: 0.20 w/w %

Compound: CCOc1nc2cccc(C(=O)OC(C)OC(=O)OC3CCCCC3)c2n1Cc1ccc(-c2ccccc2-c2nnn[nH]2)cc1 (centres unmarked) [Slurried fine particle size sample, candesartan cilexetil]
CNS desethyl ([1]; 2 weeks, HPLC): 0.10 w/w % and 0.06 w/w %
CNS desethyl ([1]; T = 0, HPLC): 0.08 w/w % and 0.03 w/w %

Compound: CCOc1nc2cccc(C(=O)OC(C)OC(=O)OC3CCCCC3)c2n1Cc1ccc(-c2ccccc2-c2nnn[nH]2)cc1 (centres unmarked) [candesartan cilexetil Form I, candesartan cilexetil]
level of desethyl-CNS [1, 4]: 0.07 % w/w by HPLC
Desethyl-CNS ([1]; before storage): 0.03 % by area HPLC

Compound: CCOc1nc2cccc(C(=O)OC(C)OC(=O)OC3CCCCC3)c2n1Cc1ccc(-c2ccccc2-c2nnn[nH]2)cc1 (centres unmarked) [candesartan cilexetil]
CNS-desethyl ([1]; fine particle size, time of slurry 3 hr, 2 weeks): 0.10 w/w %
CNS-desethyl ([1]; fine particle size, time of slurry 3 hr, T = 0): 0.07 w/w %
CNS-desethyl ([1]; fine particle size, time of slurry 6 hr, 2 weeks): 0.07 w/w %
CNS-desethyl ([1]; fine particle size, time of slurry 6 hr, T = 0): 0.06 w/w %
CNS-desethyl ([1]; fine particle size, time of slurry 9 hr, 2 weeks): 0.06 w/w %
CNS-desethyl ([1]; fine particle size, time of slurry 9 hr, T = 0): 0.05 w/w %
CNS-desethyl ([1]; fine particle size, time of slurry 13 hr, 2 weeks): 0.06 w/w %
CNS-desethyl ([1]; fine particle size, time of slurry 13 hr, T = 0): 0.05 w/w %
CNS-desethyl ([1]; fine particle size, time of slurry 23 hr, 2 weeks): 0.05 w/w %
CNS-desethyl ([1]; fine particle size, time of slurry 23 hr, T = 0): 0.04 w/w %

Further lines, results first:

level of desethyl-CNS [1, 4]: 0.41 % w/w by HPLC
level of desethyl-CNS ([1]; before storage): 0.24 % w/w by HPLC
Compound: CCOc1nc2cccc(C(=O)OC(C)OC(=O)OC3CCCCC3)c2n1Cc1ccc(-c2ccccc2-c2nnn[nH]2)cc1 (centres unmarked) [micronized CNS-Cryst, candesartan cilexetil]

level of desethyl-CNS [1, 4]: 0.14 % w/w by HPLC
level of desethyl-CNS ([1]; before storage): 0.04 % w/w by HPLC
Compound: CCOc1nc2cccc(C(=O)OC(C)OC(=O)OC3CCCCC3)c2n1Cc1ccc(-c2ccccc2-c2nnn[nH]2)cc1 (centres unmarked) [micronized material, candesartan cilexetil]

level of desethyl-CNS ([1]; after maintaining for 2 weeks (oven at 55° C.), listed as obtained product): 0.10 % w/w by HPLC
Desethyl-CNS ([1]; before storage): 0.08%
Compound: CCOc1nc2cccc(C(=O)OC(C)OC(=O)OC3CCCCC3)c2n1Cc1ccc(-c2ccccc2-c2nnn[nH]2)cc1 (centres unmarked) [stable candesartan cilexetil Form I, candesartan cilexetil]

desethyl-CNS level ([1]; after maintaining for 2 weeks): 0.06 % area by HPLC
level of desethyl-CNS ([1]; before storage): 0.03 % w/w by HPLC
Compound: CCOc1nc2cccc(C(=O)OC(C)OC(=O)OC3CCCCC3)c2n1Cc1ccc(-c2ccccc2-c2nnn[nH]2)cc1 (centres unmarked) [stable micronized candesartan Form I, candesartan cilexetil]
